The values that follow come from patent publication US20260184708A1, “PYRIDAZINONES AND METHODS OF USE THEREOF” (GFB (ABC), LLC, priority 2017, published 2026).

One test has as its target T1, TRPC5 (Homo sapiens, UniProt Q9UL62).
T1 construct: expressed in transfected cells; host or cells: HEK 293
T1 sequence (Q9UL62 1-973): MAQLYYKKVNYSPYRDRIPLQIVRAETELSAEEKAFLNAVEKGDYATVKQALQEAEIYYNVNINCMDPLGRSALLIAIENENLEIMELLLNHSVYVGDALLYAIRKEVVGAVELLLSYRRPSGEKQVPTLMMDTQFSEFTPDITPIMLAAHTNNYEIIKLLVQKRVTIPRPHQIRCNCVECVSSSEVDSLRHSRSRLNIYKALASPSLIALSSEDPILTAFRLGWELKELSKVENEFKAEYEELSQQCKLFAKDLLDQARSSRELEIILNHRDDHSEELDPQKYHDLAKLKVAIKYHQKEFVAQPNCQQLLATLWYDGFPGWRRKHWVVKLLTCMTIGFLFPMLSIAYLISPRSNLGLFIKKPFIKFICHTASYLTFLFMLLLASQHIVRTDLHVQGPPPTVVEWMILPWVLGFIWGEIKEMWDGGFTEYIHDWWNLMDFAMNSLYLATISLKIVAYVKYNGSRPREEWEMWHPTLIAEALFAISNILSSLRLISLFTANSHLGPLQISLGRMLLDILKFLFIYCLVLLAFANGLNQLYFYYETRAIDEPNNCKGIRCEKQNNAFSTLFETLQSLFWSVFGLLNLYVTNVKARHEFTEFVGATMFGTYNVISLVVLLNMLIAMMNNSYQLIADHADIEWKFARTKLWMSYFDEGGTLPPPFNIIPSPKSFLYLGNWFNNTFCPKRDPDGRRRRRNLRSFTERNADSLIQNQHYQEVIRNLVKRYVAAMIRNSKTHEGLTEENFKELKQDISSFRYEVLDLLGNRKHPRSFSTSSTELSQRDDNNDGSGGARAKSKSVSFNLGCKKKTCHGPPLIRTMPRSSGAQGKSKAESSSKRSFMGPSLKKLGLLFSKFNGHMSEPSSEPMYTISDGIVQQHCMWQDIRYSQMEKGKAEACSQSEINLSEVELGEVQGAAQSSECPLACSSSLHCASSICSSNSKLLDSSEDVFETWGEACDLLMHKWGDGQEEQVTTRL
The test is described as follows: TRPC5 automated patch clamp assay (Qpatch), current block after rosiglitazone stimulation. The format is cell-based. Conditions: Table 4; HEK293 cells overexpressing TRPC5; rosiglitazone stimulation; 80 mV; read-out: TRPC5_QP_ XC50_80. The method, then:
HEK 293 cells expressing human TRPC5 were harvested, re-suspended in serum free medium, and added to the automated platform and used within 2-3 hours. Internal and external physiological solutions were freshly prepared prior to the assay. The external solution contained: 145 mM NaCl, 4 mM KCl, 2 mM CaCl2), 1 mM MgCl2, 10 mM HEPES, 10 mM glucose, pH 7.4 with NaOH and 300 mOsm/L. The internal solution contained 120 mM L-aspartic acid, 120 mM CsOH·H2O, 20 mM CsCl, 2 mM MgCl2, 8.8 mM CaCl2), 10 mM EGTA, 10 mM HEPES, 10 mM Glucose, 0.1 mM GTP and 2 mM Na2ATP; pH 7.2 with CsOH and 290 mOsm/L. The free internal Ca2+ concentration was buffered to 1 μM.
The automated electrophysiological platform QPatch 16 from Sophion (Denmark) was used to carry out the compounds profiling. The series resistance and quality of seals were continuously monitored during the experiments. Data was analyzed using Sophion QPatch assay software 5.6 (Odense). IC50 values were calculated using a least squares regression algorithm (Hill equation).
To monitor the ion currents, a voltage ramp from −100 mV to +100 mV, over 300 ms, was applied every 10 seconds, from a holding potential of −60 mV.
After recording for a minimum of 60 seconds control period, Rosiglitazone (30 uM), was applied to activate the channel.
Regarding `Cc1cccnc1CN1CCN(c2cn[nH]c(=O)c2Cl)CC1`, the IC50 was in the range of 5 to 10 µM.

In the case of `CCN(CC)C(=O)CN1CCN(c2cn[nH]c(=O)c2Cl)CC1=O`, the IC50 is 10 to 500 µM.

Take `CN(C)C(=O)CN1CCN(c2cn[nH]c(=O)c2Cl)CC1` [drawing 708]: the IC50 fell in the range of 10 to 500 µM.

The same test, now with this note: Table 4; HEK293 cells overexpressing TRPC5; rosiglitazone stimulation; 100 mV; read-out: TRPC5_QP_ XC50_100.
With `Cc1cccnc1CN1CCN(c2cn[nH]c(=O)c2Cl)CC1`, the IC50 was 5 to 10 µM.

For `CCN(CC)C(=O)CN1CCN(c2cn[nH]c(=O)c2Cl)CC1=O`, the IC50 was 10 to 500 µM.

`CN(C)C(=O)CN1CCN(c2cn[nH]c(=O)c2Cl)CC1` [drawing 708]: the IC50 fell in the range of 10 to 500 µM.

The test is the same for the next values; noted with them: Table 5; HEK293 cells overexpressing TRPC5; rosiglitazone stimulation; 80 mV; read-out: TRPC5_QP_ XC50_80.
For `Cc1cc(F)ccc1CN1CCN(c2cc(-c3ccccc3)n[nH]c2=O)CC1`, the IC50 is 1 to 5 µM.

In the case of `CS(=O)(=O)c1ccccc1CN1CCN(c2cn[nH]c(=O)c2Cl)CC1`, the IC50 was in the range of 5 to 10 µM.

For `O=C1CN(c2cn[nH]c(=O)c2Cl)CCN1Cc1cccnc1Cl`, the IC50 lay within 10 to 500 µM.

`Cc1cc(F)ccc1CN1CCN(c2c(Cl)c(-c3ccccc3)n[nH]c2=O)CC1`: the IC50 was 10 to 500 µM.

`Cc1cc(F)ccc1CN1CCN(c2c(Cl)c(Br)n[nH]c2=O)CC1`: the IC50 lay in the range of 10 to 500 µM.

As for `O=C1CN(c2cn[nH]c(=O)c2Cl)CCN1Cc1cccc2[nH]ncc12`, the IC50 lay in the range of 10 to 500 µM.

As to `O=C1CN(c2c(Br)n[nH]c(=O)c2Cl)CCN1Cc1ccccc1C(F)(F)F`, the IC50 fell in the range of 1 to 5 µM.

For `C=Cc1n[nH]c(=O)c(N2CCN(Cc3ccc(F)cc3C)CC2)c1Cl`, the IC50 is 10 to 500 µM.

For `CS(=O)(=O)c1ccc(CN2CCN(c3cn[nH]c(=O)c3Cl)CC2=O)cc1`, the IC50 lay in the range of 10 to 500 µM.

As for `Cc1ccc(CN2CCN(c3cn[nH]c(=O)c3Cl)CC2=O)cc1`, the IC50 fell in the range of 5 to 10 µM.

For the molecule `Cn1nc(CN2CCN(c3cn[nH]c(=O)c3Cl)CC2)c2ccccc21`, the IC50 was in the range of 5 to 10 µM.

Regarding `CC(c1ccccc1)n1cnc2c1CCN(c1cn[nH]c(=O)c1Cl)C2` (stereo not drawn), the IC50 lay in the range of 1 to 5 µM.

As for `O=C1CN(c2cn[nH]c(=O)c2Cl)CCN1Cc1cccnc1Oc1ccccc1`, the IC50 is 5 to 10 µM.

Regarding `O=C1CN(c2c(Cl)cn[nH]c2=O)CCN1Cc1cccc(OC(F)(F)F)c1`, the IC50 is 10 to 500 µM.

As for `CC[C@@H]1CN(Cc2ccc(F)cc2C)CCN1c1cn[nH]c(=O)c1Cl`, the IC50 was in the range of 10 to 500 µM.

Take `Cc1cc(F)ccc1CN1CCN(c2cc(=O)[nH]nc2C)CC1=O`: the IC50 is 10 to 500 µM.

For the molecule `O=C1CN(c2cn[nH]c(=O)c2Cl)CCN1Cc1cccc2cn[nH]c12`, the IC50 lay in the range of 10 to 500 µM.

On to `COc1cn[nH]c(=O)c1N1CCN(Cc2ccc(F)cc2C)CC1`, for which the IC50 fell in the range of 1 to 5 µM.

`O=C1CN(c2cn[nH]c(=O)c2Cl)CCN1Cc1ccc(F)cc1`: the IC50 is 5 to 10 µM.

Turning to `COc1ncccc1CN1CCN(c2cn[nH]c(=O)c2Cl)CC1=O`, the IC50 fell in the range of 5 to 10 µM.

On to `O=c1[nH]ncc(N2CCN(Cc3ccc(F)cc3C(F)(F)F)CC2)c1Cl`, for which the IC50 lay in the range of 1 to 5 µM.

The test is the same for the next values; noted with them: Table 5; HEK293 cells overexpressing TRPC5; rosiglitazone stimulation; 100 mV; read-out: TRPC5_QP_ XC50_100.
`CS(=O)(=O)c1ccccc1CN1CCN(c2cn[nH]c(=O)c2Cl)CC1`: the IC50 lay within 5 to 10 µM.

For the molecule `O=C1CN(c2cn[nH]c(=O)c2Cl)CCN1Cc1cccnc1Cl`, the IC50 is 10 to 500 µM.

Regarding `Cc1cc(F)ccc1CN1CCN(c2c(Cl)c(-c3ccccc3)n[nH]c2=O)CC1`, the IC50 lay in the range of 10 to 500 µM.

For the molecule `Cc1cc(F)ccc1CN1CCN(c2c(Cl)c(Br)n[nH]c2=O)CC1`, the IC50 was in the range of 10 to 500 µM.

As to `O=C1CN(c2cn[nH]c(=O)c2Cl)CCN1Cc1cccc2[nH]ncc12`, the IC50 was in the range of 10 to 500 µM.

Regarding `O=C1CN(c2c(Br)n[nH]c(=O)c2Cl)CCN1Cc1ccccc1C(F)(F)F`, the IC50 lay in the range of 5 to 10 µM.

As to `C=Cc1n[nH]c(=O)c(N2CCN(Cc3ccc(F)cc3C)CC2)c1Cl`, the IC50 lay within 10 to 500 µM.

As for `CS(=O)(=O)c1ccc(CN2CCN(c3cn[nH]c(=O)c3Cl)CC2=O)cc1`, the IC50 was 10 to 500 µM.

For the molecule `Cc1ccc(CN2CCN(c3cn[nH]c(=O)c3Cl)CC2=O)cc1`, the IC50 was in the range of 5 to 10 µM.

In the case of `Cn1nc(CN2CCN(c3cn[nH]c(=O)c3Cl)CC2)c2ccccc21`, the IC50 lay within 10 to 500 µM.

Consider `CC(c1ccccc1)n1cnc2c1CCN(c1cn[nH]c(=O)c1Cl)C2` (stereo not drawn), for which the IC50 was 1 to 5 µM.

Consider `O=C1CN(c2cn[nH]c(=O)c2Cl)CCN1Cc1cccnc1Oc1ccccc1`, for which the IC50 was 5 to 10 µM.

With `O=C1CN(c2c(Cl)cn[nH]c2=O)CCN1Cc1cccc(OC(F)(F)F)c1`, the IC50 fell in the range of 10 to 500 µM.

`CC[C@@H]1CN(Cc2ccc(F)cc2C)CCN1c1cn[nH]c(=O)c1Cl`: the IC50 fell in the range of 10 to 500 µM.

As for `Cc1cc(F)ccc1CN1CCN(c2cc(=O)[nH]nc2C)CC1=O`, the IC50 lay within 10 to 500 µM.

For `O=C1CN(c2cn[nH]c(=O)c2Cl)CCN1Cc1cccc2cn[nH]c12`, the IC50 is 10 to 500 µM.

Take `COc1cn[nH]c(=O)c1N1CCN(Cc2ccc(F)cc2C)CC1`: the IC50 fell in the range of 1 to 5 µM.

Turning to `O=C1CN(c2cn[nH]c(=O)c2Cl)CCN1Cc1ccc(F)cc1`, the IC50 was in the range of 5 to 10 µM.

On to `COc1ncccc1CN1CCN(c2cn[nH]c(=O)c2Cl)CC1=O`, for which the IC50 lay in the range of 5 to 10 µM.

In the case of `O=c1[nH]ncc(N2CCN(Cc3ccc(F)cc3C(F)(F)F)CC2)c1Cl`, the IC50 was 1 to 5 µM.

The same test, now with this note: Table 6; HEK293 cells overexpressing TRPC5; read-out: TRPC5-QPatch IC50.
For `N#Cc1c(N2CCc3c(nnn3Cc3ccccc3C(F)(F)F)C2)cn[nH]c1=O` [drawing 891], the IC50 was in the range of 1 to 5 µM.
